The pIC50 is the IC50 on a negative log10 scale, so that one unit is a factor of ten.

pIC50: −log10 of the molar value.

One assay concerns the target T1, Cytochrome P450 1B1 (Homo sapiens, UniProt Q16678).
T1 sequence (Q16678 whole entry): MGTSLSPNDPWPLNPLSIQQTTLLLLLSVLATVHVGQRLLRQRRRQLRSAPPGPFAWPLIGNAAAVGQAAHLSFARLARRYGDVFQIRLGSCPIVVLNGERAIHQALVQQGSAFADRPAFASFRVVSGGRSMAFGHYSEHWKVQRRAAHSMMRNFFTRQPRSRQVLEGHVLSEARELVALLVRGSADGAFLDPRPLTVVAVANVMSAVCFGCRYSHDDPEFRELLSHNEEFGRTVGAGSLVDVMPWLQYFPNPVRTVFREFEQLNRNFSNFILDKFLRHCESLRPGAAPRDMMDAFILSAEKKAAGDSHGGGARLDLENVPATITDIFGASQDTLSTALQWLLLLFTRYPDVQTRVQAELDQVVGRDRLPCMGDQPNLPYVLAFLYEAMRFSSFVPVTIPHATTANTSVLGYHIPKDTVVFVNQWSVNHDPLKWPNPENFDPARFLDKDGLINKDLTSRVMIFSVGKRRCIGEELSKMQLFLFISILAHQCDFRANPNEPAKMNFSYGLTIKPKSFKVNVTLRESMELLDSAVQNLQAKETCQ
Nature of the assay: Inhibition of human recombinant CYP1B1 using 7-ethoxyresorufin as substrate incubated under dark condition for 30 mins in presence of NADPH by EROD fluorescence assay. The format is ADME.

For assay [1], the species on record is Homo sapiens. Nature of the assay: Selectivity index, ratio of IC50 for human recombinant CYP1A1 to IC50 for human recombinant CYP1B1 using 7-ethoxyresorufin as substrate.
The species entered for assay [2] is Homo sapiens. Nature of the assay: Selectivity index, ratio of IC50 for human recombinant CYP1A2 to IC50 for human recombinant CYP1B1 using 7-ethoxyresorufin as substrate.
The next assay has as its target T2, Cytochrome P450 1A1 (Homo sapiens, UniProt P04798).
T2 sequence (P04798 whole entry): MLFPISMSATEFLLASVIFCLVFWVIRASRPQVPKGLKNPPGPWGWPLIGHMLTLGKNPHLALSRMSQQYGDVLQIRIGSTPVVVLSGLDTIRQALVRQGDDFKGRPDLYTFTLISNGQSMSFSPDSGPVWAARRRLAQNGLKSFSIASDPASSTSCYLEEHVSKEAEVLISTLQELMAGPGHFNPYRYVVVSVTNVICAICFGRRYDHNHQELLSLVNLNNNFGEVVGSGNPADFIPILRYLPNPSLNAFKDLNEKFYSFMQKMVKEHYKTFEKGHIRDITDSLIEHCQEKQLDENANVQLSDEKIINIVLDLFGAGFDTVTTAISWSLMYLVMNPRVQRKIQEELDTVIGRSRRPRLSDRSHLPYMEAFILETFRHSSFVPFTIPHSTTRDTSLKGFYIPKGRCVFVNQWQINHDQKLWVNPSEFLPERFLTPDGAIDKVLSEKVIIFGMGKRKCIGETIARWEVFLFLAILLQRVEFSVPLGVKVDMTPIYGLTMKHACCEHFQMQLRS
Nature of the assay: Inhibition of human recombinant CYP1A1 using 7-ethoxyresorufin as substrate incubated under dark condition for 15 mins in presence of NADPH by EROD fluorescence assay. The assay is classed as ADME.

The target of another assay is T3, Cytochrome P450 1A2 (Homo sapiens, UniProt P05177).
T3 sequence (P05177 whole entry): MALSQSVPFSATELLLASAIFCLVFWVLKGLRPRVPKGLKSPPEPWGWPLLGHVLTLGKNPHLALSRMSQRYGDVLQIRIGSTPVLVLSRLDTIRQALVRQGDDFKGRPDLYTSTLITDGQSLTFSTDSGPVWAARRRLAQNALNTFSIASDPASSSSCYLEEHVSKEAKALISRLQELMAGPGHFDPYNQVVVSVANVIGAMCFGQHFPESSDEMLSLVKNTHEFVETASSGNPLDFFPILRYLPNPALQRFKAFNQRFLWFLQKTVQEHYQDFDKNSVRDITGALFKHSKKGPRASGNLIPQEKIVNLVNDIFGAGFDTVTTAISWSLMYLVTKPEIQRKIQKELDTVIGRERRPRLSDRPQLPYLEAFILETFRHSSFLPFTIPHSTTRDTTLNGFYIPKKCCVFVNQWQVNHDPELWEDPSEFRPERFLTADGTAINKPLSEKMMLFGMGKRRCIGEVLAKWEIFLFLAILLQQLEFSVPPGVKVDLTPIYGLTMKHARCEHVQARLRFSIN
The assay is described as follows: Inhibition of human recombinant CYP1A2 using 7-ethoxyresorufin as substrate incubated under dark condition for 45 mins in presence of NADPH by EROD fluorescence assay. The assay is classed as ADME.

In the case of `O=C(Nc1ccc(Cl)cc1Cl)c1nc(-c2ccccc2F)cs1`, the pIC50 at Cytochrome P450 1B1 was 8.65; at Cytochrome P450 1A1, 6.71; on Cytochrome P450 1A2, 6.85. For the same molecule, the values for the Ratio IC50 in the assay filed under Homo sapiens [1] and in the assay filed under Homo sapiens [2] were 88.3 and 63.6, respectively.
With `NC(=O)c1ccc(-c2csc(C(=O)Nc3cc(Cl)cc(Cl)c3)n2)cc1`, the figures for the pIC50 on Cytochrome P450 1B1, on Cytochrome P450 1A1 and on Cytochrome P450 1A2 were 8.10, < 4.00 and < 5.00, respectively. Further, the Ratio IC50 in the assay listed under Homo sapiens [1] was > 12500; in the assay listed under Homo sapiens [2], > 1250.
The like results for `Cc1sc(C(=O)Nc2ccc(C(F)(F)F)cc2)nc1-c1cccc(Cl)c1` were, in that order, 8.73, 6.87, < 5.00, 71.8 and > 5320.
The like results for `NC(=O)c1cccc(-c2csc(C(=O)Nc3cc(Cl)cc(Cl)c3)n2)c1` were, in that order, 7.94, 5.87, < 4.00, 116 and > 8640.
The like results for `O=C(Nc1ccccc1)c1nc(-c2ccccc2)cs1` were, in that order, 7.57, 6.22, 6.36, 22.1 and 16.3.
`COc1cc(NC(=O)c2nc(-c3ccc(F)cc3)cs2)cc(OC)c1`: the pIC50 on Cytochrome P450 1B1 was 8.42; at Cytochrome P450 1A1, 6.38; at Cytochrome P450 1A2, < 5.00. Moreover, the Ratio IC50 in the assay filed under Homo sapiens [1] is 108; in the assay filed under Homo sapiens [2], > 2610.
`O=C(Nc1cc(Cl)cc(Cl)c1)c1nc(-c2cccc(F)c2)cs1`: the results for the pIC50 at Cytochrome P450 1B1, at Cytochrome P450 1A1 and at Cytochrome P450 1A2 were 8.60, 6.58 and 5.33, respectively. The values for the Ratio IC50 in the assay filed under Homo sapiens [1] and in the assay filed under Homo sapiens [2] were 105 and 1880, respectively.
The like results for `O=C(Nc1cc(Cl)cc(Cl)c1)c1nc(-c2ccccc2Cl)cs1` were, in that order, 8.10, 6.69, 6.27, 25.6 and 67.6.
For `O=C(Nc1cc(Cl)cc(Cl)c1)c1nc(-c2ccc([N+](=O)[O-])cc2)cs1`, in that order: 7.56, < 4.00, 4.42, > 3650 and 1400.
With `Nc1ccc(-c2csc(C(=O)Nc3cc(Cl)cc(Cl)c3)n2)cc1`, the pIC50 on Cytochrome P450 1B1 is 6.85; at Cytochrome P450 1A1 it was 6.02; at Cytochrome P450 1A2, 5.08. For the same molecule, the Ratio IC50 in the assay filed under Homo sapiens [1] amounted to 6.8; in the assay listed under Homo sapiens [2], 58.7.
For `Cc1sc(C(=O)Nc2cc(Cl)cc(Cl)c2)nc1-c1ccc(F)cc1`, the pIC50 on Cytochrome P450 1B1 is 8.90; on Cytochrome P450 1A1, 7.16; on Cytochrome P450 1A2, 5.44. Moreover, the Ratio IC50 was found to be 55.4 in the assay filed under Homo sapiens [1] and 2920 in the assay filed under Homo sapiens [2].
The like results for `O=C(Nc1ccc(OC(F)F)cc1)c1nc(-c2cccc(F)c2)cs1` were, in that order, 10.70, 6.84, 6.16, 7170 and 34400.
The like results for `CCc1sc(C(=O)Nc2cc(Cl)cc(Cl)c2)nc1-c1ccc(F)cc1` were, in that order, 7.00, 6.65, < 4.00, 2.2 and > 990.
On to `O=C(Nc1ccc(C(F)(F)F)cc1)c1nc(-c2ccc(F)cc2)cs1`, for which the pIC50 was 8.97 on Cytochrome P450 1B1, 6.46 at Cytochrome P450 1A1 and 6.22 at Cytochrome P450 1A2. In addition, the figures for the Ratio IC50 in the assay filed under Homo sapiens [1] and in the assay listed under Homo sapiens [2] were 323 and 567, respectively.
For `O=C(Nc1ccc(C(F)(F)F)cc1)c1nc(-c2cccc(Cl)c2)cs1`, in that order: 9.28, 7.28, 6.17, 99.6 and 1270.
The like results for `N#Cc1ccc(-c2csc(C(=O)Nc3ccc(OC(F)F)cc3)n2)cc1` were, in that order, 9.00, 6.95, < 4.00, 114 and > 101000.
In the case of `NC(=O)c1cccc(-c2csc(C(=O)Nc3ccc(C(F)(F)F)cc3)n2)c1`, the pIC50 on Cytochrome P450 1B1 is 8.66; on Cytochrome P450 1A1, 7.35; on Cytochrome P450 1A2, 5.24. For the same molecule, the figures for the Ratio IC50 in the assay listed under Homo sapiens [1] and in the assay listed under Homo sapiens [2] were 20.2 and 2640, respectively.
The like results for `O=C(Nc1cc(Cl)cc(Cl)c1)c1nc(-c2cncc(Cl)c2)cs1` were, in that order, 8.75, 7.94, 8.01, 6.5 and 5.5.
For `O=C(Nc1ccc(F)cc1F)c1nc(-c2ccc(F)cc2)cs1`, in that order: 9.03, 6.39, 6.67, 437 and 230.
Regarding `O=C(Nc1cc(Cl)cc(Cl)c1)c1nc(-c2ccccc2F)cs1`, the pIC50 on Cytochrome P450 1B1 is 8.92; on Cytochrome P450 1A1, 6.89; at Cytochrome P450 1A2, 6.75. The Ratio IC50 in the assay filed under Homo sapiens [1] was found to be 107; in the assay filed under Homo sapiens [2], 147.
Regarding `Cc1sc(C(=O)Nc2ccc(OC(F)F)cc2)nc1-c1cccc(Cl)c1`, the pIC50 at Cytochrome P450 1B1 was 8.51; on Cytochrome P450 1A1, 6.89; on Cytochrome P450 1A2 it was < 4.00. For the same molecule, the Ratio IC50 in the assay filed under Homo sapiens [1] was 41.7; in the assay listed under Homo sapiens [2], > 32600.
In the case of `O=C(Nc1cc(Cl)cc(Cl)c1)c1nc(-c2ccc(Cl)cc2)cs1`, the values for the pIC50 at Cytochrome P450 1B1, at Cytochrome P450 1A1 and at Cytochrome P450 1A2 were 8.84, 6.41 and 5.88, respectively. For the same molecule, the results for the Ratio IC50 in the assay filed under Homo sapiens [1] and in the assay filed under Homo sapiens [2] were 266 and 912, respectively.
For `Cc1cccc(-c2csc(C(=O)Nc3cc(Cl)cc(Cl)c3)n2)c1`, in that order: 7.36, 5.63, < 5.00, 53.4 and > 229.
For `NC(=O)c1ccc(-c2csc(C(=O)Nc3ccc(OC(F)F)cc3)n2)cc1`, in that order: 8.99, 6.97, 5.24, 104 and 5590.
Take `O=C(Nc1cc(Cl)cc(Cl)c1)c1nc(-c2ccnc(Cl)c2)cs1`: the pIC50 is 8.37 on Cytochrome P450 1B1, 7.17 at Cytochrome P450 1A1 and < 4.00 on Cytochrome P450 1A2. The Ratio IC50 in the assay listed under Homo sapiens [1] is 16; in the assay listed under Homo sapiens [2], > 23400.
For `O=C(Nc1ccc(I)cc1)c1nc(-c2ccc(F)cc2)cs1`, in that order: 8.40, 6.90, 6.19, 31.9 and 162.
As to `O=C(Nc1ccc(OC(F)F)cc1)c1nc(-c2ccc(Cl)cc2)cs1`, the pIC50 on Cytochrome P450 1B1 was 9.05; at Cytochrome P450 1A1 it was 7.23; at Cytochrome P450 1A2 it was 6.48. Moreover, the Ratio IC50 in the assay listed under Homo sapiens [1] is 65.1; in the assay listed under Homo sapiens [2], 368.
For `NC(=O)c1ccc(-c2csc(C(=O)Nc3ccc(C(F)(F)F)cc3)n2)cc1`, in that order: 9.08, 6.85, < 5.00, 170 and > 12100.

Values taken from ChEMBL document CHEMBL6182948 (J Med Chem, 2025).
